Publication PMC11359702, “Synthesis and Biochemical Evaluation of Ethanoanthracenes and Related Compounds: Antiproliferative and Pro-Apoptotic Effects in Chronic Lymphocytic Leukemia (CLL)” (Pharmaceuticals, 2024)
Where two headings read alike, the source gives them in different places.

What was measured:
PGA-1 cells [1] = test: alamarBlue cell viability assay; conditions: for viability at 10 µM: read-out: cell viability; for IC50: read-out: PGA-1 IC50
HG-3 cells [2] = test: alamarBlue cell viability assay; conditions: for IC50: read-out: HG-3 IC50, HG-3, 24 h
CCRF-CEM = test: NCI-60 five-dose assay; assay type: cell-based, human
[3] = tested on: HG-3 and PGA-1 cell lines; test: alamarBlue cell viability assay, mean of both CLL cell lines; assay type: cell-based, human; conditions: mean of HG-3 and PGA-1
HL-60(TB) = test: NCI-60 five-dose assay; assay type: cell-based, human
SR = test: NCI-60 five-dose assay; assay type: cell-based, human
leukemia cell panel = test: NCI-60 five-dose assay, leukemia cell panel mean; assay type: cell-based, human; conditions: mean across the six leukemia cell lines
[4] = tested on: NCI 60 cancer cell line panel; test: NCI-60 five-dose assay, full-panel means; assay type: cell-based; conditions: for GI50: read-out: Mean GI50 (MID GI50, full-panel mean-graph mid-point)
Protocol: A number of our most promising compounds identified through preliminary cell viability testing (23c, 23d, 23f, 23h, 23l, 23m, 23n, 23o, 24f, 24l, 25n and 26n) were selected for NCI drug screening in the 60-cell-line panel. The panel includes nine subcategories based on cancer tissue types, which include leukemia, ovarian, central nervous system, breast, lung, prostate, skin, renal and colon cancer. The compounds were initially assessed in a one-dose assay at a fixed treatment concentration of 10 µM. The compounds selected for further investigation were progressed to a five-dose assay across the concentration ranges of 0.01, 0.1, 1, 10 and 100 µM [72]. The endpoints assessed in the screening protocol were GI50, TGI and LC50 [72].

K-562 = test: NCI-60 five-dose assay; assay type: cell-based, human
MOLT-4 = test: NCI-60 five-dose assay; assay type: cell-based, human
PGA-1 cells [5] = conditions: 10 µM
RPMI-8226 = test: NCI-60 five-dose assay; assay type: cell-based, human
[6] = HPLC stability study in phosphate buffers; assay type: physicochemical; conditions: for Half-life pH 4 / % remaining 24 h pH 4: pH 4 buffer; for Half-life pH 4 / % remaining 24 h pH 4 / Half-life pH 7.4 / % remaining 24 h pH 7.4 / Half-life pH 9 / % remaining 24 h pH 9: 37 °C; for % remaining 24 h pH 4 / % remaining 24 h pH 7.4 / % remaining 24 h pH 9: HPLC; for Half-life pH 7.4 / % remaining 24 h pH 7.4: pH 7.4 buffer; for Half-life pH 9 / % remaining 24 h pH 9: pH 9 buffer
Protocol: A preliminary stability study was carried out on selected chalcones, maleic anhydride and maleimide adducts at acidic, neutral and basic conditions (pH 4, 7.4 and 9) using HPLC to determine suitability for further preclinical investigations. […] A possible degradation route for the maleimide 23n could be through the hydrolysis of the cyclic imide of the maleimide ring, leading to the resultant amic acid product.
All samples were analyzed using acetonitrile–water (80:20%, 70:30%, 60:40% isocratic) as the mobile phase over 10 min and a flow rate of 1 mL/min. Stock solutions were prepared by dissolving 5 mg of compounds in a mobile phase ([(acetonitrile (80%): water (20%)], 10 mL). Anhydride 22h was not detected at its retention time of 5.2 min at pH 9.0. The data presented represent the results of single experiments.
The HPLC stability studies for compounds 21a, 21i, 22h, 23a, 23g, 23n, 24a, 24h, 26a and 26n were performed using a Symmetry® column (C18, 5 µm, 4.6 × 150 mm), a Waters 2487 Dual Wavelength Absorbance detector, and an HPLC pump: Waters 1525 binary and Autosampler; Waters 717 plus (Waters Corporation, Milford, MA, USA), mobile phase [(acetonitrile (80%) and water (20%)] with a typical run time of 10 min and a flow rate of 1 mL/min with detection at 254 nm. The selected compounds 21a, 21i, 22h, 23a, 23g, 23n, 24a, 24h, 26a and 26n (5 mg) in the mobile phase (10 mL) provided the stock solution for the analysis. The phosphate buffers were prepared at pH values of 4, 7.4 and 9, as described in the British Pharmacopoeia monograph 2019. The stock solution (30 µL) was added to the appropriate buffer (1 mL) and retained at 37 °C. Samples were then analyzed over the following 24-h period at selected time intervals (t = 0 min, 5 min, 30 min, 60 min, 90 min, 120 min and 24 h).

HG-3 cells [7] = conditions: 10 µM
[8] = mean over NCI 60 cell line panel

SMILES	melting point	IC50 (HG-3 cells [2])	GI50 (CCRF-CEM)	IC50 (PGA-1 cells [1]; PGA-1, 24 h)	IC50 [3]	GI50 (HL-60(TB); HL-60(TB))	GI50 (SR)	GI50 (leukemia cell panel)	CC50 [4]	Mean TGI (MID TGI, total growth inhibition) [4, 8]	GI50 [4, 8]	GI50 (K-562; K-562)	GI50 (MOLT-4; MOLT-4)	cell viability (PGA-1 cells [5])	GI50 (RPMI-8226; RPMI-8226)	also measured
CCc1ccc(C(=O)/C=C/c2c3ccccc3cc3ccccc23)cc1 [Compound 21c, (E)-3-(anthracen-9-yl)-1-(4-ethylphenyl)prop-2-en-1-one]	128 to 129 °C	–	–	–	–	–	–	–	–	–	–	–	–	–	–	–
O=C(/C=C/c1c2ccccc2cc2ccccc12)c1ccccc1 [Compound 21f, (E)-3-(anthracen-9-yl)-1-phenylprop-2-en-1-one]	128 to 130 °C	–	–	–	–	–	–	–	–	–	–	–	–	–	–	–
O=C(/C=C/c1c2ccccc2cc2ccccc12)c1ccc(I)cc1 [Compound 21g, (E)-3-(anthracen-9-yl)-1-(4-iodophenyl)prop-2-en-1-one]	167 to 173 °C	–	–	–	–	–	–	–	–	–	–	–	–	–	–	–
Cc1ccc(C(=O)/C=C/c2c3ccccc3cc3ccccc23)cc1 [Compound 21j, (E)-3-(anthracen-9-yl)-1-(p-tolyl)prop-2-en-1-one]	98 to 103 °C	–	–	–	–	–	–	–	–	–	–	–	–	–	–	–
O=C(/C=C/c1c2ccccc2cc2ccccc12)c1ccc2ccccc2c1 [Compound 21p, (E)-3-(anthracen-9-yl)-1-(naphthalen-2-yl)prop-2-en-1-one]	160 to 164 °C	–	–	–	–	–	–	–	–	–	–	–	–	–	–	viability at 10 µM (PGA-1 cells [1]; Homo sapiens, 24 h): 50%
O=C(/C=C/c1c2ccccc2cc2ccccc12)c1cccs1 [Compound 21q, (E)-3-(anthracen-9-yl)-1-(thiophen-2-yl)prop-2-en-1-one]	157 to 158 °C	–	–	–	–	–	–	–	–	–	–	–	–	–	–	–
CCc1ccc(C(=O)/C=C/C23c4ccccc4C(c4ccccc42)C2C(=O)NC(=O)C23)cc1 (centres unmarked) [Compound 23c, 9-((E)-3-(4-Ethylphenyl)-3-oxoprop-1-en-1-yl)-9,10-dihydro-9,10-[3,4]epipyrroloanthracene-12,14-dione]	–	4610 nM	2660 nM	2720 nM	3670 nM	70 nM	1370 nM	1770 nM	17000 nM	4670 nM	1900 nM	2420 nM	2230 nM	7%	1870 nM	–
O=C(/C=C/C12c3ccccc3C(c3ccccc31)C1C(=O)NC(=O)C12)c1ccc(Cl)cc1Cl (centres unmarked) [Compound 23d]	–	–	1240 nM	–	–	1580 nM	1250 nM	1590 nM	29500 nM	7580 nM	2510 nM	2190 nM	2160 nM	–	1100 nM	–
O=C(/C=C/C12c3ccccc3C(c3ccccc31)C1C(=O)NC(=O)C12)c1ccccc1 (centres unmarked) [Compound 23f, (E)-9-(3-oxo-3-phenylprop-1-en-yl)-9,10-dihydro-9,10-[3,4]epipyrroloanthracene-12,14-dione]	–	–	–	–	–	–	–	–	–	4570 nM	–	–	–	–	–	cell viability (HG-3 cells [2]; HG-3, 10 µM, 24 h, vehicle = 100%, 10 µM): 2%; IC50 (HG-3 cells [2]; Homo sapiens): 3550 nM; GI50 (CCRF-CEM; Homo sapiens): 2160 nM; IC50 (PGA-1 cells [1]; Homo sapiens, 24 h): 11300 nM; viability at 10 µM (PGA-1 cells [1]; Homo sapiens, 24 h): 13.9%; IC50 ([3]; Homo sapiens, CLL cell): 7430 nM; GI50 (HL-60(TB); Homo sapiens, HL-60, HL-60(TB)): 1500 nM; GI50 (SR; Homo sapiens): 1570 nM; GI50 (leukemia cell panel; Homo sapiens): 1810 nM; GI50 ([4]; Homo sapiens, mean over NCI 60 cell line panel): 1820 nM; CC50 ([4]; Homo sapiens, mean over NCI 60 cell line panel, read-out: Mean LC50 (MID LC50)): 14800 nM; GI50 (K-562; Homo sapiens, K562, K-562): 1940 nM; GI50 (MOLT-4; Homo sapiens, MOLT-4, MOLT-4): 2170 nM; GI50 (RPMI-8226; Homo sapiens, RPMI-8226, RPMI-8226): 1520 nM
O=C(/C=C/C12c3ccccc3C(c3ccccc31)C1C(=O)NC(=O)C12)c1ccc(I)cc1 (centres unmarked) [Compound 23g]	–	4470 nM	–	2770 nM	3620 nM	–	–	–	–	–	–	–	–	2%	–	recovery at 24 h ([6]; over the pH range studied (pH 4, 7.4 and 9)): < 50%; Half-life pH 4 [6]: 11.3 h; % remaining 24 h pH 4 [6]: 7.98%; Half-life pH 7.4 [6]: 8.9 h; % remaining 24 h pH 7.4 [6]: 11.02%; Half-life pH 9 [6]: 5.5 h; % remaining 24 h pH 9 [6]: 10.50%; cell viability (HG-3 cells [7]): 0%
O=C(/C=C/C12c3ccccc3C(c3ccccc31)C1C(=O)NC(=O)C12)c1ccncc1 (centres unmarked) [Compound 23m]	–	–	2390 nM	–	–	1760 nM	1760 nM	2080 nM	28200 nM	7760 nM	2510 nM	1880 nM	2570 nM	–	2110 nM	–
O=C(/C=C/C12c3ccccc3C(c3ccccc31)C1C(=O)NC(=O)C12)c1ccco1 (centres unmarked) [Compound 23o]	–	–	1890 nM	–	–	320 nM	–	1640 nM	11000 nM	3890 nM	1780 nM	2570 nM	1770 nM	–	1680 nM	–
O=C(/C=C/C12c3ccccc3C(c3ccccc31)C1C(=O)N(c3ccccc3)C(=O)C12)c1ccccc1 (centres unmarked) [Compound 24f, (E)-9-(3-Oxo-3-phenylprop-1-en-yl)-13-phenyl-9,10-dihydro-9,10-[3,4]epipyrroloanthracene-12,14-dione]	–	7350 nM	1450 nM	7130 nM	7240 nM	1020 nM	2030 nM	1450 nM	72400 nM	19950 nM	2090 nM	1390 nM	1230 nM	26%	1550 nM	–
O=C(/C=C/C12c3ccccc3C(c3ccccc31)C1C(=O)N(c3ccccc3)C(=O)C12)c1ccc(Cl)cc1 (centres unmarked) [Compound 24l, (E)-9-(3-(4-Chlorophenyl)-3-oxoprop-1-en-1-yl)-13-phenyl-9,10-dihydro-9,10-[3,4] epipyrroloanthracene-12,14-dione]	–	3450 nM	570 nM	310 nM	1880 nM	800 nM	1070 nM	980 nM	43700 nM	10720 nM	1700 nM	1550 nM	760 nM	17%	1160 nM	cell viability (HG-3 cells [7]): 24%
O=C(c1ccccc1)c1ccc(N2C(=O)C3C4c5ccccc5C(/C=C/C(=O)c5ccccn5)(c5ccccc54)C3C2=O)cc1 (centres unmarked) [Compound 26n, (E)-13-(4-Benzoylphenyl)-9-(3-oxo-3-(pyridin-2-yl)prop-1-en-1-yl)-9,10-dihydro-9,10-[3,4]epipyrroloanthracene-12,14-dione]	–	1850 nM	2590 nM	390 nM	1120 nM	1900 nM	1370 nM	2070 nM	100000 nM	100000 nM	7580 nM	1770 nM	2290 nM	18%	2490 nM	decrease in cell viability compared to 26f (HG-3 cells [2]; HG-3, 1 µM): 34%; decrease in cell viability compared to 26f (HG-3 cells [2]; HG-3, 10 µM): 82%; decrease in cell viability compared to 26f (PGA-1 cells [1]; PGA-1, 1 µM): 20%; decrease in cell viability compared to 26f (PGA-1 cells [1]; PGA-1, 10 µM): 63%; Half-life pH 4 [6]: 8.5 h; % remaining 24 h pH 4 [6]: 10.97%; Half-life pH 7.4 [6]: 16.5 h; % remaining 24 h pH 7.4 [6]: 40.39%; Half-life pH 9 [6]: over 24 h; % remaining 24 h pH 9 [6]: 51.20%; cell viability (HG-3 cells [7]): 4%
